Experimental data taken from patent publication US11028072B2, “2,4-diamino-6-ethylpyrimidine derivatives with antimalarial activities against Plasmodium falciparum” (National Science and Technology Development Agency, priority 2015, dated 2021).
Like-named read-outs stand apart in the source and are kept apart here.

Key:
wild type (WT) pfDHFR = wild type (WT) pfDHFR (Plasmodium falciparum, UniProt P13922, N108S/R59C); assay: Inhibition of wild type pfDHFR (Ki); format: biochemical
Method: (§1) The synthesized 2,4-diamino-6-ethylpyrimdine derivatives as the hydrochloride salts were tested for the activities against Plasmodium falciparum (P. falciparum) according to the standard methods. These include the inhibition of dihydrofolate reductase (DHFR) enzymes of P. falciparum including, wild type (WT) and quadruple mutants (N51IC59RS108NI164L) (QM). The inhibition was expressed as inhibition constants (Ki) in nano molar (nM).

in vitro = conditions: African green monkey
From the text: (§2) In Vitro Antimalarial Activites Against P. falciparum and Cytotoxicity Towards Mammalian Cells (Vero Cells)

[1] = tested on: P. falciparum TM4/8.2 (wild type); assay: microbe, parasite or virus in culture; format: cell-based, Plasmodium falciparum; conditions: read-out: IC50 P. falciparum TM4/8.2 (WT)
From the text: as §2

[2] = tested on: P. falciparum V1/S (N51I + C59R + S108 + I164L); assay: microbe, parasite or virus in culture; format: cell-based, Plasmodium falciparum; conditions: read-out: IC50 P. falciparum V1/S
From the text: as §2

[3] = biological target: quadruple mutant N51I + C59R + S108N + I164L (QM) pfDHFR (Plasmodium falciparum, UniProt P13922, I164L/N51I); assay: Inhibition of quadruple mutant pfDHFR (Ki); format: biochemical
Chain of quadruple mutant N51I + C59R + S108N + I164L (QM) pfDHFR (P13922 whole entry N51I/I164L): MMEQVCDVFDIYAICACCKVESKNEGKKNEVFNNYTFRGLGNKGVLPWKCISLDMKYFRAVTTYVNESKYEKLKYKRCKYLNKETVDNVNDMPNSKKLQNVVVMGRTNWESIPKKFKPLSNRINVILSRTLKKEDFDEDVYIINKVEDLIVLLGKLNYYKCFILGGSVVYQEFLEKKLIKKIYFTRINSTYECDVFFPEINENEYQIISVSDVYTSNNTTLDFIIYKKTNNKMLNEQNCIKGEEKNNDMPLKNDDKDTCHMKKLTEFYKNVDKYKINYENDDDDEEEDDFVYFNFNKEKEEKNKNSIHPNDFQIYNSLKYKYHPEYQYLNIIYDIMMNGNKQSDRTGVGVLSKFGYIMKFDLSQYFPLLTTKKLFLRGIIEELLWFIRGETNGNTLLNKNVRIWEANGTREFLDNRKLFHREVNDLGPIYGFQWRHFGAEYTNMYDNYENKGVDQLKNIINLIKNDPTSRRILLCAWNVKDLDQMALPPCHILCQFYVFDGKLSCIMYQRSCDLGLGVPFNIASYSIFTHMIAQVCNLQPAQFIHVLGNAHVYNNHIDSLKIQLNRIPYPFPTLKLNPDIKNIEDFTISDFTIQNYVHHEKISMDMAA
Method: as §1

[4] = biological target: T1, Human dihydrofolate reductase (hDHFR) (Homo sapiens, UniProt P00374); assay: Inhibition of human dihydrofolate reductase (Ki); format: biochemical; conditions: human DHFR; hydrochloride salts
T1 sequence (P00374 1-187): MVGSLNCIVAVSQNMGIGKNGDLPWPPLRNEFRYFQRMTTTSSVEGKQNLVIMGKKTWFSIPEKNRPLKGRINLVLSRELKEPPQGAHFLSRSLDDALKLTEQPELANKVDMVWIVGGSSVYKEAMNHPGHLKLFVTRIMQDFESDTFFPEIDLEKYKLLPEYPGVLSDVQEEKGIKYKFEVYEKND

Vero cells = assay: in vitro; conditions: read-out: Cytotoxicity against Vero cells (IC50); Vero cells
From the text: as §2

[5] = Plasmodium falciparum, in vitro, wild-type strain TM4/8.2
[6] = Plasmodium falciparum, in vitro, quadruple mutant strain V1/S

Chain of wild type (WT) pfDHFR (P13922 whole entry R59C/N108S): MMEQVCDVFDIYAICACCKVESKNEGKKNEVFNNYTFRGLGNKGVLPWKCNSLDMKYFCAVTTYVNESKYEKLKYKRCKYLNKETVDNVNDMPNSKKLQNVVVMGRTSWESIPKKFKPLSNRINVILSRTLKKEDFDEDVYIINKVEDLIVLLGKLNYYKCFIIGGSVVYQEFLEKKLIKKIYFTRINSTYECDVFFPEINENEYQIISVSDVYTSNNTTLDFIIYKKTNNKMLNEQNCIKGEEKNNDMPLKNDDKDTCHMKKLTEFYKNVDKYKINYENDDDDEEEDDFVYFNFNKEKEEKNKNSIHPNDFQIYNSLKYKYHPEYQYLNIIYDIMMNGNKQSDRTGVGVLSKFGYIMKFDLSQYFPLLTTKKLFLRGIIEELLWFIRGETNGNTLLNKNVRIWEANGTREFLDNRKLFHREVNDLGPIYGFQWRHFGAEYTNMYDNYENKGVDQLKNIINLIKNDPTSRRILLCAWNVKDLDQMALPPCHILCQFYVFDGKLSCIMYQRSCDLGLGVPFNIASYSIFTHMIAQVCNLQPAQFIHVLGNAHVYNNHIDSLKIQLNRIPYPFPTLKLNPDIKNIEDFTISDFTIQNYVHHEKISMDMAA

SMILES	melting point	Ki (wild type (WT) pfDHFR)	IC50 (in vitro)	IC50 [1, 5]	IC50 [2, 6]	Ki [3]	Ki [4]	IC50 ([1]; Plasmodium falciparum)	IC50 ([2]; Plasmodium falciparum)	IC50 (Vero cells)	IC50 [1]	IC50 ([2]; in vitro, quadruple mutant strain V1/S)
CCc1nc(N)nc(N)c1-c1cn(-c2cccc(C(=O)O)c2)nn1.Cl [Compound 2, 2,4-diamino-6-ethyl-5-(1-(3-(carboxy)phenyl)-1H-1,2,3-triazol-4-yl)pyrimidine Hydrochloride]	205 to 207 °C	1030 ± 89.3 nM	> 10000 nM	> 10000 nM	> 10000 nM	6650 ± 409 nM	> 100000 nM					
CCc1nc(N)nc(N)c1OCc1cn(-c2cccc(C(=O)O)c2)nn1.Cl [Compound 16, 2,4-diamino-6-ethyl-5-((1-(3-(carboxy)phenyl)-1H-1,2,3-triazol-4-yl)methoxy)pyrimidine Hydrochloride]	197.5 to 199.5 °C	0.27 ± 0.03 nM	> 25000 nM	600 ± 240 nM	> 25000 nM	6.18 ± 0.6 nM	817 ± 145 nM					
CCc1nc(N)nc(N)c1OCCCc1cc(-c2cccc(C(=O)O)c2)no1.Cl [Compound 49, 2,4-diamino-6-ethyl-5-(3-(3-(3-(carboxy)phenyl)isoxazol-5-yl)propoxy)pyrimidine Hydrochloride]	219 to 220.5 °C	0.19 ± 0.02 nM	> 100000 nM	7 ± 1.5 nM	130 ± 40 nM	0.29 ± 0.01 nM	12.6 ± 1.43 nM					
CCc1nc(N)nc(N)c1OCCc1coc(-c2ccc(C(=O)O)cc2)n1 [Compound 59]		0.26 ± 0.01 nM	> 10000 nM	52 ± 10 nM	> 10000 nM	1.56 ± 0.07 nM	17.4 ± 1.14 nM					
CCc1nc(N)nc(N)c1OCc1csc(-c2ccccc2)n1 [Compound 60]		1.02 ± 0.14 nM	> 50000 nM	1200 ± 380 nM	20800 ± 1860 nM	38.8 ± 5.58 nM	276 ± 16.7 nM					
CCc1nc(N)nc(N)c1OCc1csc(-c2cccc(C)c2)n1 [Compound 61]		0.34 ± 0.05 nM	31300 ± 7750 nM	840 ± 100 nM	18000 ± 7770 nM	37.7 ± 3.04 nM	131.5 ± 0.88 nM					
CCc1nc(N)nc(N)c1OCc1csc(-c2cccc([N+](=O)[O-])c2)n1 [Compound 62]		0.74 ± 0.07 nM	17900 ± 6230 nM	460 ± 70 nM	3980 ± 520 nM	53.2 ± 8.93 nM	134 ± 7.24 nM					
CCc1nc(N)nc(N)c1OCc1csc(-c2cccc(OCC(=O)OCc3ccccc3)c2)n1 [Compound 63]		0.75 ± 0.1 nM	> 50000 nM	400 ± 70 nM	> 50000 nM	33.9 ± 1.85 nM	118 ± 14.8 nM					
CCc1nc(N)nc(N)c1OCc1csc(-c2cccc(OCC(=O)O)c2)n1 [Compound 64]		0.6 ± 0.04 nM	> 50000 nM	550 ± 120 nM	> 50000 nM	41.3 ± 7.41 nM	184 ± 21.4 nM					
CCc1nc(N)nc(N)c1OCc1csc(-c2cccc(C(=O)OC)c2)n1 [Compound 65]		0.51 ± 0.04 nM	> 50000 nM			56.7 ± 5.79 nM	195 ± 8.2 nM	400 ± 80 nM	> 50000 nM			
CCc1nc(N)nc(N)c1OCc1csc(-c2cccc(C(=O)O)c2)n1.Cl [Compound 66, 2,4-diamino-6-ethyl-5-((2-(3-(carboxy)phenyl)thiazol-4-yl)methoxy)pyrimidine Hydrochloride]	217.5 to 219 °C	0.86 ± 0.1 nM	> 10000 nM	2170 ± 540 nM	> 10000 nM	36.7 ± 4.79 nM	102 ± 5.26 nM					
CCc1nc(N)nc(N)c1OCc1csc(-c2ccc(C)cc2)n1 [Compound 67]		0.81 ± 0.05 nM	28900 ± 5740 nM	1020 ± 530 nM	19000 ± 6700 nM	27.3 ± 1.45 nM	> 100000 nM					
CCc1nc(N)nc(N)c1OCc1csc(-c2ccc(OC)cc2)n1 [Compound 68]		0.46 ± 0.06 nM	43500 ± 13400 nM			16 ± 1.27 nM	186 ± 4.66 nM	450 ± 90 nM	12900 ± 5710 nM			
CCc1nc(N)nc(N)c1OCc1csc(-c2ccc(F)cc2)n1 [Compound 69]		0.9 ± 0.18 nM	> 25000 nM	790 ± 380 nM	> 25000 nM	45.6 ± 4.68 nM	318 ± 29.7 nM					
CCc1nc(N)nc(N)c1OCc1csc(-c2ccc(Cl)cc2)n1 [Compound 70]		0.74 ± 0.09 nM	63500 ± 17600 nM	1180 ± 30 nM	24300 ± 9370 nM	30.2 ± 1.59 nM	286 ± 47.1 nM					
CCc1nc(N)nc(N)c1OCc1csc(-c2ccc(Br)cc2)n1 [Compound 71]		0.76 ± 0.15 nM	> 25000 nM	1090 ± 440 nM	18700 ± 1900 nM	24.3 ± 1.75 nM	203 ± 27.2 nM					
CCc1nc(N)nc(N)c1OCc1csc(-c2ccc(OCC(=O)OCc3ccccc3)cc2)n1 [Compound 72]		0.8 ± 0.09 nM	> 50000 nM	230 ± 30 nM	> 50000 nM	30.3 ± 5.63 nM	140 ± 22 nM					
CCc1nc(N)nc(N)c1OCc1csc(-c2ccc(OCC(=O)O)cc2)n1 [Compound 73]		0.65 ± 0.14 nM	> 50000 nM	41 ± 6 nM	> 50000 nM	28.9 ± 2.56 nM	357 ± 34.4 nM					
CCc1nc(N)nc(N)c1OCc1csc(-c2ccc(C(=O)OC)cc2)n1 [Compound 74]		0.65 ± 0.06 nM	> 50000 nM			34 ± 5.42 nM	447 ± 110 nM	400 ± 130 nM	15900 ± 2110 nM			
CCc1nc(N)nc(N)c1OCc1csc(-c2ccc(C(=O)O)cc2)n1 [Compound 75]		0.69 ± 0.12 nM	> 50000 nM	2650 ± 430 nM	> 50000 nM	39.2 ± 3.82 nM	301 ± 24.4 nM					
CCc1nc(N)nc(N)c1OCCc1csc(-c2ccccc2)n1 [Compound 76]		0.94 ± 0.16 nM	1330 ± 460 nM	11 ± 2 nM	17800 ± 6800 nM	7.28 ± 0.69 nM	21 ± 1.24 nM					
CCc1nc(N)nc(N)c1OCCCOc1ccccc1CCC(=O)O [Compound P218, reference compound]							17.4 ± 3.8 nM			> 10000 nM	4.6 ± 1.9 nM	56 ± 20 nM
